Data published in patent US20260256921A1, “BIFUNCTIONAL MOLECULES TO TARGET DEGRADATION OF TUMOR NECROSIS FACTOR” (Biohaven Therapeutics Ltd., priority 2023, published 2026).
pIC50, pKd: −log10 of the molar value.

How the values were obtained:
[1] = molecular target: T1, Biotinylated Human TNF-α Protein (active trimer) (Homo sapiens, UniProt P01375); test: Octet (BLI) binding to TNF-α; conditions: 1:1 binding model, N.B. = No Binding
T1 construct: purchased ACROBiosystems TNA-H82E3
Experimental: Protocol. The binding to IL-17A was measured by Bio-Layer Interferometry (BLI) using the Sartorius Octet 96e platform (Goettingen, Germany). The binding assay was performed using Streptavidin (SA) Dip and Read Biosensors (Sartorius Catalog #18-5019; Goettingen, Germany) in OptiPlate-96F, Black, 96-well, Pinch bar design, plates (Perkin Elmer Catalog #6005270; Waltham, MA, USA) with the following steps: (1) 60 seconds of baseline; (2) 600 seconds of loading with 50 nM TNF-α (Biotinylated Human TNF-α Protein, His, Avitag (active trimer); ACROBiosystems Catalog #TNA-H82E3; Newark, DE, USA); (3) 60 seconds of baseline; (4) 120 seconds of quenching with 50 μg/ml of Biocytin (Thermo Fisher Catalog #B1592; Waltham, MA, USA); (5) 60 seconds of baseline; (6) 180 seconds of association with a dilution series of ligand consisting of seven concentrations. The eighth tip in the column was run in Assay Buffer (Phosphate Buffered Saline (PBS; Gibco Catalog #10010; Pottstown, PA, USA)+0.05% Tween 20 (v/v) (Fisher BioReagents Catalog BP337-500; Pittsburgh, PA, USA)+0.1% BSA (w/v) (Rockland Catalog #BSA-50; Pottstown, PA, USA)) to serve as a reference sensor, the signal of which was subtracted from the sample sensors. (7) 180 seconds of dissociation in Assay Buffer.
(§1) Results. Data analysis was done using the Octet Data Analysis HT software (Sartorius, Goettingen, Germany). Processed data was globally fit to a 1:1 binding model for determination of the equilibrium dissociation constant (KD).

human TNF-α [2] = molecular target: T2, human TNF-α (Homo sapiens, UniProt P01375); test: TNF-α thermal melt assay; type: binding; parameters: Amino acids 77-233 of Human TNF-α protein with an N-terminal GST tag; GST (N, cleaved yes); made in house; host or cells: Escherichia coli (BL21 NiCo); conditions: thermal melt, SYPRO Orange, Kd calculated as in Matulis et al.; read-out: TM Kd
Experimental: Protein was purified using glutathione agarose purification columns (Pierce™, Waltham, MA, USA). Following purification, the GST tag was removed using HRV3c protease (Pierce™, Waltham, MA, USA) and the GST tag and the TNF-α were separated via ion exchange chromatography using a 20 mM HEPES pH 8.0 buffer system ramping from 0 to 1 M NaCl over 12 column volumes with 5 ml of Q Sepharose (HiScreen Q HP, Cytiva™, Marlborough, MA, USA). The final protein includes the amino acids GPLGSG at the N-terminus of the protein.
Protein was heated from 20° C. to 95° C. at one degree per minute in a Roche Opus384 qPCR machine.
Target sequence in this assay (P01375 77-233): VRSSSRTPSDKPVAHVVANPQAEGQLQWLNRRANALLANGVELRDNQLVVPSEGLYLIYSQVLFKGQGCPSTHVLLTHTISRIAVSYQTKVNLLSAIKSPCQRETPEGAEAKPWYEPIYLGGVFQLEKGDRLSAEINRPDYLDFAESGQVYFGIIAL

[3] = molecular target: T3, native human ASGPR protein (Homo sapiens, UniProt P07306); test: Octet (BLI) binding to ASGPR protein; conditions: 1:1 binding model
T3 sequence (P07306 1-291): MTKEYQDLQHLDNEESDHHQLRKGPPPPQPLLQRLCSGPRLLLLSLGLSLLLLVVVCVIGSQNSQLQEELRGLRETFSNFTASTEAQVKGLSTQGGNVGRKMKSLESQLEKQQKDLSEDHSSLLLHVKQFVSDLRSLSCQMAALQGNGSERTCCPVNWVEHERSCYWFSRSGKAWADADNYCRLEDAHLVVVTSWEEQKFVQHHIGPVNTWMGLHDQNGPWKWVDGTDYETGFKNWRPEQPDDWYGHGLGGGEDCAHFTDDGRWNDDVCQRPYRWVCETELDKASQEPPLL
Experimental: Protocol. The binding to native human ASGPR protein was measured by Bio-Layer Interferometry (BLI) using the Sartorius Octet 96e platform (Goettingen, Germany). The binding assay was performed using the Ni-NTA (NTA) Dip and Read Biosensors (Sartorius Catalog #18-5101; Goettingen, Germany) in OptiPlate-96F, Black, 96-well, Pinch bar design, plates (Perkin Elmer Catalog #6005270; Waltham, MA, USA) with the following steps: (1) 60 seconds of baseline in Assay Buffer (PBS (Gibco Catalog #10010; Pottstown, PA, USA)+0.05% Tween 20 (v/v) (Fisher BioReagents Catalog BP337-500; Pittsburgh, PA, USA)+0.1% BSA (w/v) (Rockland Catalog #BSA-50; Pottstown, PA, USA) +1 mM CaCl2; Sigma Catalog #21115; Burlington, MA, USA); (2) 600 seconds of loading with 100 nM ASGPR protein; (3) 60 seconds of baseline; (4) 180 seconds of association with a dilution series of ligand consisting of seven concentrations. The eighth tip in the column was run in Assay Buffer to serve as a reference sensor, the signal of which was subtracted from the sample sensors. (5) 180 seconds of dissociation in Assay Buffer.
as §1

human TNF-α [4] = molecular target: T2, human TNF-α; test: TNF-α functional assay (hHEK-TNF-α SEAP reporter cells); type: cell-based; parameters: purchased ACROBiosystems TNA-H4211; conditions: hHEK-TNF-α cells, SEAP readout, TNF-α added at EC80 (1.034 pM), 18-24 hours; read-out: TNF-α Function IC50
Excerpt: Human HEK TNF-αcells (hHEK-TNF-α cells; InvivoGen Catalog #hkb-tnfdmyd; San Diego, CA, USA) are human embryonic kidney HEK293 cells that are stably transfected with the reporter gene, secreted alkaline phosphatase (SEAP). The hHEK-TNF-α cells allow for the detection of bioactive human and murine TNF-α via the activation of the NF-kB-inducible promoter and subsequent production of SEAP. Bioactivity of commercial human TNF-α protein (ActiveMax® Human TNF-α Protein, Tag Free, Low Endotoxin; available by ACROBiosystems Catalog #TNA-H4211; Newark, DE, USA) was determined in this reporter system.
Test molecules were dissolved in 100% DMSO and serially diluted by either 3-fold serial dilution or 4-fold serial dilution. […] TNF-α protein was added at the previously determined ECso. Plates containing cells, test molecules, and cytokine were incubated overnight for 18-24 hours at 37° C., 5% CO2.
The level of SEAP in the supernatant of each well was quantified using the Quanti Blue™ Solution (InvivoGen Catalog #rep-qba2; San Diego, CA, USA), a reagent with a colorimetric change in the presence of SEAP. To perform the Quanti-Blue assay: 20 L of the sample supernatant after the overnight 18-24 hour incubation was added to 180 L of Quanti Blue™ Reagent and incubated for 45 minutes at 37° C. […] Inhibition of TNF-α signaling was calculated utilizing GraphPad Prism (San Diego, CA, USA).
Target sequence in this assay (P01375 77-233 limits assumed): as the sequence (P01375 77-233) above

T1 sequence (P01375 77-233 limits assumed): as the sequence (P01375 77-233) above

SMILES | Octet Kd TNF-α [1] | pKd (human TNF-α [2]) | pKd [3] | pIC50 (human TNF-α [4]) | Octet Kd ASGPR [3]
CCC(=O)N[C@H]1CO[C@H](COCCOCCOCCOCCn2cc(COCCNC(=O)CNC(=O)CCOCCOCCC(=O)N3CCN(Cc4ccc(-c5c[nH]c6ccncc56)c(OCCc5ccc(-c6cccc7ccncc67)cc5)c4)CC3)nn2)[C@H](O)[C@@H]1O [Compound 107] | N.B. | 7.26 | 6.02 | 6.50 | –
CCC(=O)N[C@H]1CO[C@H](COCCOCCOCCOCCn2cc(COCCNC(=O)CNC(=O)CCC(=O)N3CCN(Cc4ccc(-c5c[nH]c6ccncc56)c(OCCc5ccc(-c6cccc7ccncc67)cc5)c4)CC3)nn2)[C@H](O)[C@@H]1O [Compound 106] | N.B. | 7.30 | < 6.00 | 6.45 | –

Other lines, results leading:

Octet Kd TNF-α [1] | pKd (human TNF-α [2]) | pKd [3] | pIC50 (human TNF-α [4]) | Octet Kd ASGPR [3] | SMILES
N.B. | 6.00 | 8.67 | < 2.00 | – | CCC(=O)NC1COC(COCCOCCOCCOCCn2cc(COCC(COCc3cn(CCOCCOCCOCCOCC4OCC(NC(=O)CC)C(O)C4O)nn3)(COCc3cn(CCOCCOCCOCCOCC4OCC(NC(=O)CC)C(O)C4O)nn3)NC(=O)CNC(=O)CCOCCOCCC(=O)N3CCN(Cc4ccc(-c5c[nH]c6ccncc56)c(OCCc5ccc(-c6cccc7ccncc67)cc5)c4)CC3)nn2)C(O)C1O (centres unmarked) [Compound 103]
N.B. | 7.19 | – | 6.48 | weak | CCC(=O)NC1COC(COCCOCCOCCOCCn2cc(COCCNC(=O)CNC(=O)CCOCCOCCOCCOCCOCCOCCC(=O)N3CCN(Cc4ccc(-c5c[nH]c6ccncc56)c(OCCc5ccc(-c6cccc7ccncc67)cc5)c4)CC3)nn2)C(O)C1O (centres unmarked) [Compound 105]
N.B. | 6.00 | 9.00 | 6.00 | – | CCC(=O)NC1COC(COCCOCCOCCOCCn2cc(COCC(COCc3cn(CCOCCOCCOCCOCC4OCC(NC(=O)CC)C(O)C4O)nn3)(COCc3cn(CCOCCOCCOCCOCC4OCC(NC(=O)CC)C(O)C4O)nn3)NC(=O)CNC(=O)CCC(=O)N3CCN(Cc4ccc(-c5c[nH]c6ccncc56)c(OCCc5ccc(-c6cccc7ccncc67)cc5)c4)CC3)nn2)C(O)C1O (centres unmarked) [Compound 104]
